Reference: patent US7662853B2, “Monoacetyldiacylglycerol derivative for the treatment of sepsis” (priority 2004, dated 2010)

Columns and labels:
KIBG-5 cells = test: Biliary cancer model in hamster (7 treatment groups); format: in vivo, Syrian golden hamsters; conditions: Compound 3 25 mg/kg/day P.O.
Protocol: Six week old female Syrian golden hamsters (Harlan, Indianapolis, […], USA) were housed in specific pathogen free unit. 5×10^5 KIBG-5 cells (Molecular therapy, Vol. 3, No. 4, pp 431-437) suspended in 100 μl of RPMI 1640 serum-free medium were intravenously injected via femoral vein. And 5×10^5 KIBG-5 cells suspended in 100 μl of RPMI 1640 serum-free medium were subcutaneously injected to the flank of the hamsters. Hamsters injected KIBG-5 were divided into following 7 groups;
1) Control group treated with RPMI medium,
2) Experimental group treated with non-modified BMSC cells (2.5×10^6) (Leukemia & Lymphoma, Vol. 44, No. 11, pp 1973-1978),
3) Experimental group treated with BMSC cells modified with Ad/ΔE1 50 MOI (Leukemia & Lymphoma, Vol. 44, No. 11, pp 1973-1978),
4) Experimental group treated with DC+ tumor lysate (5×10^6),
5) Experimental group treated with BMSC cells modified with Ad/hIL-2 50 MOI (Leukemia & Lymphoma, Vol. 44, No. 11, pp 1973-1978),
One week after the injection of cancer cells to hamsters (BMSC treated group), 2.5×10^6 of BMSC cells were injected once again to each hamster. In the case of DC+tumor lysate treated group, 5×10^6 of DC cells and tumor lysate were injected to each hamster (with subcutaneous injection or intravenous injection) at the first, second, third, forth, sixth, eighth week, followed by observation for 12 weeks.

KIGB-5 cells = test: Biliary cancer model in hamster, Compound 3 dose groups; format: in vivo, Syrian golden hamsters; conditions: for gross findings, tumor: 4th week
Protocol: In another hand, six week old female Syrian golden hamsters were housed in specific pathogen free unit. KIGB-5 cells (5×10^5) suspended in 100 μl of RPMI 1640 serum-free medium were intravenously injected via femoral vein. […] Animals of each group were sacrificed at 4, 8, 12 weeks for pathological examination. […] At 8th week, control group observed multiple metastatic lesions in both lungs.

B16F10 cells = test: Melanoma model in mice; format: in vivo, C57BL/6 mice; conditions: Compound 3 50 mg/kg/day P.O.
Protocol: 6 week female C57BL/6 mice (provided from Asan Institute for Life Sciences Animal Lab., Seoul, Korea) were housed in specific pathogen free unit.
B16F10 cells (2×10^4) suspended in 100 μl of RPMI 1640 serum-free medium were intravenously injected via tail vein. One week before tumor cell injection, the following 3 groups were treated.
2) Dendritic cells (DC) (5×10^5 cells/day)+tumor lysate treated group
In the case of DC+tumor lysate treated group, one week before melanoma injection, 5×10^5 DC cells mixed with tumor lysate were injected to the abdominal cavity every 1 weeks. […] As a result, gross findings at 4th week control group observed multiple metastatic lesions in both lungs.

[1] = Toxicity test, single oral administration; format: in vivo; conditions: mouse, in vivo; ICR mice, oral, single dose, 14 days
Protocol: (§1) Control group was treated 5% ethanol solution. IRC mice, housed in SPF facility were used as test animals. […] Weight increment rate(%)={Weight of day 14−Weight of day 0}÷{Weight of day 0}×100 [Mathematical Formula 2]

ICR mice = test: Toxicity test, single oral administration; format: in vivo; conditions: for Number of dead mice/Number of orally administered mice: 14 days
Protocol: as §1

CCCCC/C=C\C/C=C\CCCCCCCC(=O)OC(COC(C)=O)COC(=O)CCCCCCCCCCCCCCC (stereo not shown) [Compound 3]
tumor formation (KIBG-5 cells; 4 weeks after cancer cell injection): no tumor were found | metastatic lung lesions (KIBG-5 cells; 8 weeks after cancer cell injection (i.v.)): only one minute lung lesion was found | gross findings, tumor (KIGB-5 cells; 10 mg/kg/day P.O.): no evidence of tumor | gross findings, tumor (KIGB-5 cells; 25 mg/kg/day P.O.): no evidence of tumor | gross findings, tumor (KIGB-5 cells; 50 mg/kg/day P.O.): no evidence of tumor | metastatic lung lesions (KIGB-5 cells; 8th week, 10 mg/kg/day P.O.): showed tumor in the left lung | metastatic lung lesions with microscope (KIGB-5 cells; 8th week, 25 mg/kg/day P.O.): showed one minute lesion with microscope | metastatic lung lesions with naked eye (KIGB-5 cells; 8th week, 25 mg/kg/day P.O.): did not show any metastatic lung lesions with naked eye | metastatic lung lesions with naked eye (KIGB-5 cells; 8th week, 50 mg/kg/day P.O.): did not show any metastatic lung lesions with naked eye | gross findings, metastatic lesions in the lung (B16F10 cells; 4th week after B16F10 i.v. injection): no evidence of disease in the lung | Survival rate (B16F10 cells; observation for 6 weeks after melanoma (B16F10) injection): 90% | LD50 at 14 days [1]: > 2000 mg/kg | Death rate (ICR mice; 62.5 mg/kg oral once): 12.5% | Number of dead mice/Number of orally administered mice (ICR mice; 62.5 mg/kg oral once): 1/8 | toxicity (ICR mice; 62.5 mg/kg˜2 g/kg oral once, 14 days observation): No toxicity was seen | Death rate (ICR mice; 125 mg/kg oral once): 30% | Number of dead mice/Number of orally administered mice (ICR mice; 125 mg/kg oral once): 0/8 | Death rate (ICR mice; 250 mg/kg oral once): 12.5% | Number of dead mice/Number of orally administered mice (ICR mice; 250 mg/kg oral once): 1/8 | Death rate (ICR mice; 500 mg/kg oral once): 22.2% | Number of dead mice/Number of orally administered mice (ICR mice; 500 mg/kg oral once): 2/9 | Death rate (ICR mice; 1000 mg/kg oral once): 0% | Number of dead mice/Number of orally administered mice (ICR mice; 1000 mg/kg oral once): 0/9 | Death rate (ICR mice; 2000 mg/kg oral once): 0% | Number of dead mice/Number of orally administered mice (ICR mice; 2000 mg/kg oral once): 0/9
